Read-outs that look alike come from different tables or passages of the source.

Series [1] relates to HCT 116 cells. In words: Western blot analysis. It counts as cell-based, human. How it is done: HCT 116 cells were seeded in six‐well plates at 2 × 10^5 cells/well and incubated for 24 houra. […] Cells were harvested and lysed using RIPA buffer. The proteins were separated on an SDS‐PAGE and transferred to PVDF membranes. Then, the membranes were blocked for 1 hour and incubated with primary antibodies overnight at 4°C. The membranes were washed and incubated with secondary antibodies for 1 hour at room temperature. Next, the resultant bands were detected using an Odyssey Infrared Imaging system (LI‐COR, NB, USA). Antibodies against phospho‐RB (Ser780), AKT, phospho‐AKT ([…]), PARP, phospho‐p38 MAPK (Thr180/Tyr182), p38 MAPK, and Bim were purchased from Cell Signaling Technology (Danvers, MA, USA). Antibodies against β‐actin and α‐tubulin were purchased from Sigma‐Aldrich.
(In general: Immunoblotting shows a protein as a band on a membrane.)

In the next series the target is T1, CDK4/Cyclin D3 (Homo sapiens, UniProt P11802).
T1 construct: purchased Carna Biosciences
T1 sequence (P11802 whole entry): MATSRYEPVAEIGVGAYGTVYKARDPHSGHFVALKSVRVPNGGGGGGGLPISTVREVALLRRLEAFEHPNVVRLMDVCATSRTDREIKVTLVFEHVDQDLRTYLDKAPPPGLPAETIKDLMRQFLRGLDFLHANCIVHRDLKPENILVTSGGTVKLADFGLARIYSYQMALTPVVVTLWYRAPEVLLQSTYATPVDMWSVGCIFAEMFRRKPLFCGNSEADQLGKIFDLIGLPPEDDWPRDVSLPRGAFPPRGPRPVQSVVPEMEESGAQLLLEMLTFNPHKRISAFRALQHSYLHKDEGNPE
T1 sequence (P30281 whole entry partner): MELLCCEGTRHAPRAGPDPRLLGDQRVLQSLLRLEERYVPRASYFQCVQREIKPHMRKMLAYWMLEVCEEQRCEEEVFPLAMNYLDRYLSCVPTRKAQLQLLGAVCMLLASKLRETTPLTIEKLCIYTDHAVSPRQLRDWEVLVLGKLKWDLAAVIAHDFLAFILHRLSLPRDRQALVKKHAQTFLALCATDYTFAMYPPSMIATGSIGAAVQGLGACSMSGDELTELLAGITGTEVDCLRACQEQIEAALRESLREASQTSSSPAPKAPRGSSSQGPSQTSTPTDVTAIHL
Kind of series: off-chip mobility shift assay, CDK4/Cyclin D3. It counts as biochemical. The method, then:
(§1) Cellular kinase activities were evaluated using nonradioisotopic methods such as the off‐chip mobility shift assay or IMAP (Carna Biosciences, Kobe, Japan).11 A kinase inhibition profiling panel was produced on the basis of the kinase inhibition rates. In off‐chip mobility shift assay, compound solution was prepared in assay buffer (20 mmol/L HEPES, 0.01% Triton X‐100, 2 mmol/L DTT, pH 7.5) and incubated in a 384‐well plate at room temperature. The reaction was stopped by adding Termination Buffer (QuickScout Screening Assist MSA; Carna Biosciences, Kobe, Japan). The substrate peptide and the phosphorylated peptide in the reaction solution were separated and quantified by LabChip system (Perkin Elmer, MA, USA). In IMAP assay, compound solution was prepared in assay buffer (20 mmol/L HEPES, 0.01% Tween‐20, 2 mmol/L DTT, pH 7.4) and incubated in a 384‐well black plate at room temperature. IMAP binding reagent (IMAP Screening Express kit; Molecular Devices, CA, USA) was added and incubated for 30 minutes. The kinase reaction was evaluated at the fluorescence polarization.

The next series has as its target T2, CDK6/Cyclin D3 (Homo sapiens, UniProt Q00534).
T2 construct: purchased Carna Biosciences
In words: off-chip mobility shift assay, CDK6/Cyclin D3. It counts as biochemical. How it is done:
as §1

A further series has as its target T3, CDK7/Cyclin H/MAT1 (Homo sapiens, UniProt P50613).
T3 construct: purchased Carna Biosciences
In words: off-chip mobility shift assay, CDK7/Cyclin H/MAT1. It counts as biochemical. The method, then: as §1

A further series deals with T4, PIM2 (Homo sapiens, UniProt Q9P1W9).
T4 construct: purchased Carna Biosciences
T4 sequence (Q9P1W9 whole entry): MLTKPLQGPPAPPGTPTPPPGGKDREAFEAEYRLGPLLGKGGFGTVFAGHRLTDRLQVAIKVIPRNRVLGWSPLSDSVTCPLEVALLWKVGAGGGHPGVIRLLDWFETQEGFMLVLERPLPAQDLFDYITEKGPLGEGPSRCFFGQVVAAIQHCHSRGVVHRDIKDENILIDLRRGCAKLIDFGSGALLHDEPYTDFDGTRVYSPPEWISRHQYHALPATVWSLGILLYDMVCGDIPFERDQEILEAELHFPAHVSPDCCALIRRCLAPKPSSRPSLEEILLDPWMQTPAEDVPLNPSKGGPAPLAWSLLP
Kind of series: off-chip mobility shift assay, PIM2. It is filed as biochemical. How it is done:
as §1

Another series relates to 313 protein kinases. Kind of series: kinase panel assay (off-chip mobility shift or IMAP). It is filed as biochemical. The settings on record: 313 kinases; 10 μmol/L printed for siphonodictyal B. The method, then:
as §1

For a further series, the system named is PIK3CA/PIK3R1. The settings on record: cited from earlier work.
In series [2] the test system is HCT 116 cells. In words: ROS detection by DCFDA staining. It is filed as cell-based, human. Conditions: 2 h. How it is done: HCT 116 cells were treated with each drug for 2 hours and stained using a DCFDA/H2DCFDA—Cellular Reactive Oxygen Species Detection Assay Kit (Abcam). The measurement was performed using FC‐500.
The next series concerns HCT 116 xenograft. In words: xenograft mouse model, tumor growth. It is filed as in vivo, Balb/c nude mice. The settings on record: 20 mg/kg intraperitoneally every 3 days. The method, then: (§2) All animal experiments were performed according to the Regulations for Animal Experiments and Related Activities at Tohoku University. Six‐week‐old female Balb/c nude mice were purchased from Charles River Laboratories (Wilmington, MA, USA). HCT 116 cells (5 × 10^6) were implanted subcutaneously into the right flanks of nude mice. After tumor formation was confirmed, mice were assigned to treatment with 20 mg/kg siphonodictyal B or vehicle (four mice per group) administered intraperitoneally every 3 days. Siphonodictyal B was dissolved in saline with 2.5% CremophorEL® and 2.5% ethanol. Tumor volumes were calculated on the basis of tumor mass using the formula length × width × width/2 (mm^3). The body weights of mice were also measured every 3 days.

A further series relates to phospho-p38. Kind of series: immunohistochemistry of xenograft tumor tissue. It is filed as in vivo, Balb/c nude mice. Conditions: 20 mg/kg intraperitoneally every 3 days, after all treatments. How it is done:
as §2
Tumor tissues were collected from mice, fixed in 10% formalin, and embedded in paraffin. Tumor sections on slides were dewaxed, rehydrated, and incubated with a specific antibody against phospho‐p38.

Series [3] deals with HCT 116 cells. Kind of series: cell proliferation assay (Cell Counting Kit-8), HCT 116.
Description: Cells were seeded in 96‐well plates at 4000 cells/well and incubated for 24 hours, then treated with each concentration of siphonodictyal B. In experiments with SB203580 or NAC, cells were further preincubated for 24 or 1 hour before application of siphonodictyal B, respectively. Cells were incubated with Cell Counting Kit‐8 (Dojindo Molecular Technologies, Kumamoto, Japan) for 1.5 hours. Then, the absorbance of each well was measured using SpectraMaxM2e (Molecular Devices, CA, USA). The ratios of surviving cells to control cells treated with 0.1% DMSO were calculated.
The mark [4] stands for this setting: read-out: PI3K (p110α/p85α) inhibitory activity IC50.
[5] abbreviates: ref Kikuchi T et al. 2016;2016(34):5659-66, read-out: IC50 PIK3CA/PIK3R1.

T3 sequence (P50613 whole entry): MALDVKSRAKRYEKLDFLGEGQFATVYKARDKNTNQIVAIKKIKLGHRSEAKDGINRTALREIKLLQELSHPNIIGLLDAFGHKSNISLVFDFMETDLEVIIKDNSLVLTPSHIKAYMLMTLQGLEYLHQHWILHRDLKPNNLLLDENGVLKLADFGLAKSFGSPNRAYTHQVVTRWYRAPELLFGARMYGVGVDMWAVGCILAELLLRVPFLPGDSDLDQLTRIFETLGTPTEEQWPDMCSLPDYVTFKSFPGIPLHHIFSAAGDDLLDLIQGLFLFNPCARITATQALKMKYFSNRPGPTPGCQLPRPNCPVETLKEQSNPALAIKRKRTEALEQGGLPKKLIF
T3 sequence (P51946 whole entry partner): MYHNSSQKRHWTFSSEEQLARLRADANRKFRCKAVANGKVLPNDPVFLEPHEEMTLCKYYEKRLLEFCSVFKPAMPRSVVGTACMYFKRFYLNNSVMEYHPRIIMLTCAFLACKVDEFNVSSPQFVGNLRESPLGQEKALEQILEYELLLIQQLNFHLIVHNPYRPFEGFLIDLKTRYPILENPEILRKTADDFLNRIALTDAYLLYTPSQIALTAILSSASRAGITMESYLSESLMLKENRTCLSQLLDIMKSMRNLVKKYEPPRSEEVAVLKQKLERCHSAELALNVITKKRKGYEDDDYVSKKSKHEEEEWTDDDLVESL
T3 sequence (P51948 whole entry partner): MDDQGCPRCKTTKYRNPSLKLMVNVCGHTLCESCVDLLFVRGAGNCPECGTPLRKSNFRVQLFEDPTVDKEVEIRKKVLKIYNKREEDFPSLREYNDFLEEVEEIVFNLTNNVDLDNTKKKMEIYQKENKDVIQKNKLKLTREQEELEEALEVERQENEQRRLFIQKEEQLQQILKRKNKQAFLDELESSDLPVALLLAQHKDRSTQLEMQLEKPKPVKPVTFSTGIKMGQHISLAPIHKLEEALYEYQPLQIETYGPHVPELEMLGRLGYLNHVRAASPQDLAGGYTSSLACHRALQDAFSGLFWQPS
T2 sequence (Q00534 whole entry): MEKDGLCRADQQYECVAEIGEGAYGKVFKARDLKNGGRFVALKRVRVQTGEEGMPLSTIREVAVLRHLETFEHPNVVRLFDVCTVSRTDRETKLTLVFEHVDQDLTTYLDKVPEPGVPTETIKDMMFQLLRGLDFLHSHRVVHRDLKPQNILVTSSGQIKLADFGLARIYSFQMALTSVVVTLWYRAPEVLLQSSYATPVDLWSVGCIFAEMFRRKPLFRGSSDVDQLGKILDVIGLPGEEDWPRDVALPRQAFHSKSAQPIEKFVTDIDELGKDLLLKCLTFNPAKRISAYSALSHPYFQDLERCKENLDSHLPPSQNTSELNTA
T2 sequence (P30281 whole entry partner): as the sequence (P30281 whole entry partner) above

In the case of `CC(=O)c1c(C)c2cnc(Nc3ccc(N4CCNCC4)cn3)nc2n(C2CCCC2)c1=O` [palbociclib, Palbociclib, reference compound], the RB phosphorylation result in the series with HCT 116 cells [1] (10 μmol/L palbociclib, 48 h) is “inhibited”.

For `CC1CCC2C(C)(C)CCCC2(C)c2c1oc1c(C=O)c(O)c(O)cc21` (stereo not shown) [Liphagal], the IC50 on CDK4/Cyclin D3 was 19.9 µM; at CDK6/Cyclin D3, 6.78 µM; on CDK7/Cyclin H/MAT1 it was 1.27 µM; on PIM2 it was 5.31 µM; in the series with PIK3CA/PIK3R1 (setting [4]), 4.1 µM; in the series with PIK3CA/PIK3R1 (setting [5]), 4.12 µM. For the same compound, the “inhibition of CDK4, CDK6, CDK7 and PIM-2 in kinase panel” value with 313 protein kinases is listed as “strongly inhibited”.

Take `CS(=O)(=O)N1CCN(Cc2cc3nc(-c4cccc5[nH]ncc45)nc(N4CCOCC4)c3s2)CC1` [GDC0941, reference compound]: in the series on HCT 116 cells [1] (2 μmol/L GDC0941, 48 h), the AKT phosphorylation result is recorded as “inhibited”.

For the compound `CC1CC[C@H]2C(C)(C)CCC[C@]2(C)C1=Cc1cc(O)c(O)c(C=O)c1O` (stereo partly shown) [Siphonodictyal B], the IC50 on CDK4/Cyclin D3 is 32.9 µM; at CDK6/Cyclin D3, 69.1 µM; at CDK7/Cyclin H/MAT1, 13.7 µM; at PIM2, 6.99 µM; in the series with PIK3CA/PIK3R1 (setting [4]), 2.6 µM; in the series on PIK3CA/PIK3R1 (setting [5]), 2.62 µM. Further, in the series on 313 protein kinases, the “inhibition of CDK4, CDK6, CDK7 and PIM-2 in kinase panel” value is on record as “strongly inhibited”. Moreover, the PARP cleavage result with HCT 116 cells [1] (1.0 μmol/L, 48 h) is given as “induced”. In addition, the p38 phosphorylation entry in the series with HCT 116 cells [1] (1.0 μmol/L, 48 h) is “clearly induced”. Further, in the series on HCT 116 cells [1] (0.1, 0.5 or 1 μmol/L, 48 h), the “AKT phosphorylation at Ser473” value was “did not inhibit”. The “RB phosphorylation at Ser780” value in the series with HCT 116 cells [1] (0.1, 0.5 or 1 μmol/L, 48 h) was “did not inhibit”. The “levels of Bim” value in the series on HCT 116 cells [1] (0.5 or 1.0 μmol/L, 48 h) is listed as “increased”. Also, the “phosphorylated p38 on addition of NAC” value in the series with HCT 116 cells [1] (with NAC, 24 h) is “reduced”. Further, the “p38 phosphorylation on addition of SB203580” value in the series with HCT 116 cells [1] (with SB203580, 48 h) is recorded as “reduced”. In the series with HCT 116 cells [2], the “ROS levels vs DMSO” value is on record as “higher”. The “increased ROS production on addition of NAC” value in the series on HCT 116 cells [2] (with NAC) is reported as “completely canceled”. Moreover, the “tumor volume vs control group” value with HCT 116 xenograft is reported as “significantly smaller”. For the same compound, the “tumor weight vs control group” value in the series on HCT 116 xenograft was “significantly smaller”. Besides, the “phosphorylated p38 staining in tumor tissue vs control group” value in the series on phospho-p38 was “strongly stained”. Besides, the “cytotoxic effect (ratio of surviving cells)” value with HCT 116 cells [3] (HCT 116, 0.01-10 μmol/L, 24 h) is “more potent cytotoxic effects than liphagal”. For the same compound, the “cytotoxic effect on addition of NAC” value in the series with HCT 116 cells [3] (HCT 116, with NAC, 24 h) is reported as “almost completely rescued”. In the series on HCT 116 cells [3] (HCT 116, with SB203580, 48 h), the “cytotoxic effect on addition of SB203580” value is on record as “partially canceled”.

The values above are taken from article PMC6745845, “In Vitro and in Vivo antitumor activity and the mechanism of siphonodictyal B in human colon cancer cells” (Cancer Medicine, 2019).
